{"source": "patent US10993923B2", "about": "“Method for ameliorating fibrosis using 1-[4-chloro-3-(trifluoromethyl)phenyl]-3-[3-(4-cyanophenoxy)phenyl]urea” (priority 2016, dated 2021)", "key": {"[1]": {"tested_on": "bleomycin-induced pulmonary fibrosis in mice", "test": "Bleomycin-induced pulmonary fibrosis in mice", "format": "in vivo", "description": "Male C57BL/6J mice (6-8 weeks of age) were obtained from the National Laboratory Animal Center (Taipei, Taiwan). All experimental procedures using these mice were performed according to protocols approved by the Institutional Laboratory Animal Care and Use Committee of Cardinal Tien Hospital. Each mouse was housed in cages (IVC; individual ventilation cage), and given daily photoperiod for 12 hours. Room temperature was maintained at 22-25° C., and humidity was maintained at 60 to 70%. Ventilation rate was remained at 16-18 times/hour. Food and drinking water (Altromin 1326 mice feed, Altromin, Germany) was freely given. All operations were executed in accordance with the standards of animal experimental animal operation of law. Management and feeding of animals were in compliant with guidance for care and use of laboratory (NRC 1996) rule approach implementation.\nPulmonary fibrosis was induced using bleomycin sulfate in male C57BL/6J mice (FIG. 1). The mice were intraperitoneally injected (IP) under anesthesia with Avertin (240 mg/Kg). On day 0 (n=20), a single dose of bleomycin (BLM) (1 mg=1000 IU, clinical level, Bleomycine Bellon, Sanofi-Aventis, France) was received in the mice (3.5 mg/kg) via intranasal instillation. The mice in the control group (n=10) were given saline only. On day 14 after intranasal BLM instillation, BLM treated mice were randomized into two groups receiving vehicle or 1-[4-chloro-3-(trifluoromethyl)phenyl]-3-[3-(4-cyanophenoxy)phenyl]urea until the end of the experiment. From day 14 to day 28, mice were administered intraperitoneally with 7.5 mg/kg/day of 1-[4-chloro-3-(trifluoromethyl)phenyl]-3-[3-(4-cyanophenoxy)phenyl]urea daily at a dose of 10 mL/kg body weight. The experimental time was 28 days and the 1-[4-chloro-3-(trifluoromethyl)phenyl]-3-[3-(4-cyanophenoxy)phenyl]urea compound was administered within 14 to 28 days.\nThe paraffin embedded tissue array blocks were cut into 4-μm-thick sections for H&E staining. For each case, carcinoma type, cell differentiation, growth pattern, tumor cell nuclear morphology, metaplasia, calcification, necrosis, mitosis count, invasion status and other specific differentiations were re-checked by two pathologists Immunohistochemical (IHC) staining was performed using a Ventana BenchMark XT automated stainer (Ventana, Tucson, Ariz.). Briefly, 4-μm-thick sections were cut consecutively from formalin-fixed, paraffin-embedded tissue. These sections were then mounted on silanized slides and allowed to dry overnight at 37° C. After deparaffinization and rehydration, the slides were incubated with 3% hydrogen peroxide solution for 5 minutes. After being washed with the supplied buffer, the tissue sections were repaired for 40 minutes with ethylenediamine tetraacetic acid.\nHydroxyproline analysis was performed using a hydroxyproline test kit following the manufacturer's instructions (Cell BioLabs, Inc., USA). Lung tissue was hydrolyzed in 12N HCl at 120° C. for 3 hours, and then washed and suspended in H2O. The tissue suspension was then mixed with chloramine-T at room temperature for 30 minutes. Then Ehrlich's reagent was added and reacted at 60° C. for 90 minutes. After that, the absorbance at 540 nm was measured.\nMice lung collagen was measured in lung homogenate using a Sircol assay (Biocolor, UK) following the manufacturer's instructions. Briefly, lung tissue homogenates were mixed with Sircol dye and centrifuged. The precipitate was resuspended in NaOH and the absorbance at 550 nm was measured. The absorbance obtained is directly proportional to the concentration of the recently synthesized collagen.\nWhole-cell extracts were obtained via RIPA buffer (Millipore, USA) and protein concentrations were quantified via a BCA protein assay kit (Thermo Fisher Scientific, USA). 20 or 25 μg of protein was added to various percentages of SDS-sodium dodecyl sulfate-acrylamide gel and blotted onto a polyvinylidene fluoride (PVDF) membrane. […]"}, "[2]": {"tested_on": "TGF-β, PDGFR and STAT3 pathways in LX2 cells", "test": "Western blot of signalling proteins in LX2 cells", "format": "cell-based, human", "description": "Rat immortal hepatic stellate cell line HSC-T6 and LX2 human hepatic stellate cell line were provided by Professor Scott Friedman of Mount Sinai Hospital in New York, USA. The primary mouse HSCs were obtained via the way: after intubating the hepatic portal vein of the mouse, the cells were perfused with […] and ethylene glycol bis-aminoethyl ether tetraacetic acid (EGTA) buffer in situ, and then collagenase was injected to digest the liver tissue, and then the primary mouse HSCs were isolated by Histodnz gradient. HSC-T6 cells were cultured in Waymouth medium; LX2 cells and primary mouse HSCs were cultured in Dulbecco's Modified Eagle Medium (DMEM) containing 10% fetal bovine serum (FBS), 100 μg/mL penicillin, 100 μg/mL streptomycin, and 2 mM L-glutamine HSC-T6 cells, LX2 cells and primary mouse HSCs were cultured in a humidified incubator containing 5% carbon dioxide at 37° C. After adding the FBS, the resting HSC is started. […] Whole-cell extracts were obtained via RIPA buffer (Millipore, USA) and protein concentrations were quantified via a BCA protein assay kit (Thermo Fisher Scientific, USA). 20 or 25 μg of protein was added to various percentages of SDS-sodium dodecyl sulfate-acrylamide gel and blotted onto a polyvinylidene fluoride (PVDF) membrane. […] Proteins were detected by Immobilon Western Chemiluminescent HRP substrate (Millipore, USA) or ECL detection system (UVP Corporation, USA). […] Plasmids encoding the human wild-type SHP-1 and SHP-1 mutant, in which the N-SH2 domain was […] was changed into an […]) were cloned into the pCMV6-entry vector with myc-tag. These mutants were confirmed through DNA sequencing. […] (Chicago, Ill., USA)."}, "[3]": {"tested_on": "BDL-induced cholestasis fibrosis in mice", "test": "Bile duct ligation (BDL) fibrosis mice treatment model", "format": "in vivo, Balb/C mice", "settings": "10 mg/kg from day 8 until sacrifice on day 14 following BDL; FIG. 13C, 13D", "description": "In the bile duct ligation (BDL) mouse model, the common bile duct of Balb/C mice was double-ligated and excised. Mice were fed daily with vehicle or 1-[4-chloro-3-(trifluoromethyl)phenyl]-3-[3-(4-cyanophenoxy)phenyl]urea on day 1 or day 8 until they were sacrificed on day 14.\nThe mice liver samples were stored in 10% formaldehyde, dehydrated with gradient alcohol, embedded in paraffin blocks, sectioned to a thickness of 3 μm, placed on glass slides, and stained with Picrosirius Red Stain kit (ScyTek, USA), following the manufacturer's instructions. The severity of liver fibrosis was graded according to the Ishak fibrosis score. Quantitative collagen-positive area (qCPA) was determined by densitometry via ImageJ software. Hepatic hydroxyproline concentrations were measured by the hydroxyproline assay kit (Biovision, USA), following the manufacturer's instructions Immunohistochemistry was performed by the Leica BOND-MAX automatic chromatograph (Leica Biosystems, Germany), following the manufacturer's instructions."}, "[4]": {"settings": "Western blot, bleomycin model after treatment, FIG. 6"}}}
{"smiles": "N#Cc1ccc(Oc2cccc(NC(=O)Nc3ccc(Cl)c(C(F)(F)F)c3)c2)cc1", "note": "[1-[4-chloro-3-(trifluoromethyl)phenyl]-3-[3-(4-cyanophenoxy)phenyl]urea]", "values": [{"measurement": "tolerability (drug-related adverse events)", "setting": "[1]; 7.5 mg/kg dose, daily, day 14 to day 28 after bleomycin", "value": "well tolerated"}, {"measurement": "fibrin deposition (Masson's trichrome staining positive area)", "setting": "[1]; 7.5 mg/kg/day, day 14 to 28, FIG. 3", "value": "significantly reduced"}, {"measurement": "pathological changes of lung sections (hematoxylin-eosin staining)", "setting": "[1]; 7.5 mg/kg/day, day 14 to 28, versus BLM group, FIG. 2", "value": "significantly improved"}, {"measurement": "collagen content of mice lung", "setting": "[1]; Sircol assay, 7.5 mg/kg/day, day 14 to 28, FIG. 5", "value": "improved the accumulation of collagen"}, {"measurement": "P-STAT3", "setting": "[1]; [4]", "value": "decreased"}, {"measurement": "amount of fibronectin", "setting": "[1]; [4]", "value": "decreased"}, {"measurement": "expression level of E-cadherin", "setting": "[1]; [4]", "value": "increased"}, {"measurement": "decrease of hydroxyproline (Hyp) content compared with the BLM group", "setting": "[1]; lung tissue, 7.5 mg/kg/day, day 14 to 28, FIG. 4", "value": "about 22%"}, {"measurement": "p-STAT3, ectopic expression of the vector control and wild-type SHP-1", "setting": "[2]; 5 μM, 24 hours, FIG. 17D, 17E", "value": "downregulated"}, {"measurement": "p-PDGFR and p-Akt in the PDGFR pathway", "setting": "[2]; 10 μM for 4 hours, then PDGF-BB 100 ng/mL 10 minutes, FIG. 14E", "value": "downregulated"}, {"measurement": "p-Smad2 and p-Smad3 of the TGF-β pathway", "setting": "[2]; 10 μM for 4 hours, then TGF-β1 10 ng/mL 20 minutes, FIG. 14D", "value": "downregulated"}, {"measurement": "downregulation of p-STAT3 and cyclin D1, compared with sorafenib", "setting": "[2]; FIG. 15A", "value": "more significant dose-escalation effects on the downregulation"}, {"measurement": "quantitative collagen-positive area (qCPA)", "setting": "[3]", "value": "significantly reduced"}]}
